The values that follow come from patent US20090217394A1 (priority 2005, published 2009).

One data set has as its system SCID-Ins-TRECK-Tg mouse. The experiment in a line: Blood insulin level after DT in transgenic mouse. The data set is classed as in vivo. The source says:
(§1) Moreover, the blood insulin level of an SCID-Ins-TRECK-Tg mouse was compared with that of a non-Tg mouse. When DT had not yet been administered, there had been no difference between them. […] However, the SCID-Ins-TRECK-Tg mouse was not able to secrete insulin, and thus the blood insulin level thereof was not changed (FIG. 5B) in it.

Data set [1] relates to non-transgenic mouse born of the same mother. The experiment in a line: Blood glucose level after diphtheria toxin in non-transgenic littermate. The data set is classed as in vivo.
Data set [2] deals with islets of Langerhans in the pancreas of the transgenic mouse. Briefly: Histological analysis of transgenic mouse pancreas after diphtheria toxin. The data set is classed as in vivo.
Data set [3] concerns SCID-Ins-TRECK-Tg mice. Briefly: Blood glucose level after intraperitoneal diphtheria toxin in transgenic mice. The data set is classed as in vivo, mouse.
The subject of a further data set is mouse. The following applies: dosage of 50 μg/kg.
For a further data set, the system named is mouse cells. To be noted: toxin added from outside of the cells; cited from earlier work.
A further data set has as its system non-Tg mouse. The experiment in a line: Blood insulin level after DT in non-Tg mouse. Type of data set: in vivo.
From the text: as §1

The test system of data set [4] is SCID-Ins-TRECK-Tg mice. Briefly: Decrease in blood glucose level by administration of insulin to DT-induced hyperglycemic mice. The data set is classed as in vivo, mouse.
Data set [5] concerns the target human HB-EGF (L148S/P149T) (human) (UniProt Q99075). The experiment in a line: cell-based or functional assay.
Chain of UniProt Q99075 (Q99075 63-148 L148S): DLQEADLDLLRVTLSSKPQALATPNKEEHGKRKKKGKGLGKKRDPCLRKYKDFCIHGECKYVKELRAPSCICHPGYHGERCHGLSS
Setting [6] is: 5th day after administration of DT.
[7] abbreviates: after DT, 10 minutes after 2 g/kg oral glucose.
Setting [8] is: 7 days after 5 μg/kg diphtheria toxin, immunostaining.
The mark [9] stands for this setting: diphtheria toxin 50 ng/kg to 50 μg/kg intraperitoneal, within two days.

Consider diphtheria toxin, for which, in the data set with SCID-Ins-TRECK-Tg mouse (setting [6]), the blood insulin level entry is on record as “significantly decreased”. Further, the “blood insulin level after glucose load” value with SCID-Ins-TRECK-Tg mouse (setting [7]) is listed as “not changed”. For the same substance, the “changes in blood glucose levels due to administration of the toxin” value in [1] is reported as “no changes”. For the same substance, in data set [2] (setting [8]), the “insulin positive cells (β cells) in islets of Langerhans” value is “significantly decreased” and the “number of α cells stained with anti-glucagon antibodies” value was “increased”. Besides, the “cells in the islets of Langerhans (HE staining)” value in data set [2] (7 days after 40 μg/kg diphtheria toxin) is recorded as “damaged”. Further, in the data set with SCID-Ins-TRECK-Tg mice [3] (diphtheria toxin 50 ng/kg to 20 μg/kg intraperitoneal), the “time for which high blood glucose level was maintained” value is listed as at least 50 days. Besides, in the data set with SCID-Ins-TRECK-Tg mice [3] (diphtheria toxin 50 ng/kg to 20 μg/kg intraperitoneal, from four days after administration), the “blood glucose level from four days after administration” value was at least 400 mg/dL. For the same substance, the “blood glucose level two days after administration” value in the data set on SCID-Ins-TRECK-Tg mice [3] (diphtheria toxin 50 ng/kg to 20 μg/kg intraperitoneal, two days after administration) is at least 200 mg/dL. Moreover, in the data set on SCID-Ins-TRECK-Tg mice [3] (setting [9]), the “blood glucose level within two days after administration” value is at least 200 mg/dL; the “glucose and ketone bodies in urine” value was “detection of glucose and ketone bodies in urine”. Moreover, the “duration of hyperglycemic state” value in the data set with SCID-Ins-TRECK-Tg mice [3] (single DT administration, 5 ng/kg to 50 μg/kg intraperitoneal) is at least 2 months. Besides, the “minimum DT amount necessary for inducing hyperglycemia” value in the data set on SCID-Ins-TRECK-Tg mice [3] (single intraperitoneal administration) is given as 50 ng/kg. Also, the abnormality after administration entry with mouse was “no abnormality is observed”. In addition, in the data set with mouse cells, the “resistance of mouse cells to diphtheria toxin relative to human cells” value is reported as ≥ 1,000 times. In the data set with non-Tg mouse (setting [6]), the blood insulin level result is listed as “not changed”. In addition, in the data set with non-Tg mouse (setting [7]), the “blood insulin level after glucose load” value is given as “rapidly increased”.

Turning to “NovoRapid injection: rapid-acting insulin analogue (NovoRapid injection; NovoNordisk Pharma)”, the “blood glucose level after insulin” value with SCID-Ins-TRECK-Tg mice [4] (1 U intraperitoneal, severe hyperglycemia (blood glucose >600 mg/dl)) is recorded as “decreased to a normal level”; in the data set on SCID-Ins-TRECK-Tg mice [4] (100 mU insulin, mouse at 500 mg/dl or higher after 1 μg/kg DT (FIG. 5A)), “rapidly decreased to a normal value”; in the data set on SCID-Ins-TRECK-Tg mice [4] (100 mU intraperitoneal, 7 days after 1 μg/kg DT, mouse with blood glucose 500 mg/dl (FIG. 5C)) it was “normalized”; in the data set with SCID-Ins-TRECK-Tg mice [4] (100 mU intraperitoneal, severe hyperglycemia (blood glucose >600 mg/dl)), “no changes”.

Turning to “diphtheria toxin (from UniProt P00588 33-567)”, in [5], the minimum DT amount necessary for inducing hyperglycemia was 50 ng/kg.
